Source: US7807162B2, “Single domain VHH antibodies against von Willebrand factor” (Ablynx N.V., priority 2005, dated 2010)
Several values for one entry are separate records, joined by “and”; a condition that tells them apart may be missing. Equal values may be shown once.

Tests used:
ADAMTS-13 = assay: Cleavage of recombinant A1-A2-A3 vWF fragment by ADAMTS-13 (Western Blot); assay type: biochemical, human; conditions: control; EDTA in NPP
Method: In a second type of experiment, different reaction mixtures were prepared as summarized in table 60, however, without the addition of the A1A2A3 construct. The A1A2A3 construct is a recombinant fragment consisting out of the A1, A2 and A3 domain of vWF. Mixtures were pre-incubated for 5 minutes at 37° C. after which the A1A2A3 fragment is added and the mixture is incubated in a waterbath overnight at 37° C. […] The blot was blocked for 2 hours at room temperature with blockbuffer (1:1 Odyssey blockbuffer in 1×TBS pH=7.4) and incubated with Rabbit polyclonal anti-vWF (DAKO). Alexa Fluor 680 goat anti-rabbit was used for detection. Scanning was done on the ODYSSEY to detect the degradation products.
In a second assay, a recombinant fragment containing the A1-A2-A3 domain of vWF was mixed with normal pool plasma (NPP) containing ADAMTS-13, resulting in proteolytic cleavage of the fragment which was observed by a Western Blot analysis.

[1] = tested on: ristocetin-induced platelet aggregation; assay: Ristocetin-induced platelet aggregation (RIPA) ex vivo in blood of treated baboons; conditions: baboons 4-10; further +1 mg/kg Plavix on top of 5 mg/kg Aspegic + 60 IU/kg Heparin + 1 mg/kg Plavix
Method: Platelet aggregations were performed on a Chronolog whole blood and optical Aggregometer (Model 560CA, Chronolog, USA). PRP was prepared (collected on 0.38 mol/L citrate), by centrifuging the whole blood at 1200 rpm for 5 minutes. The upper fraction containing the PRP was carefully removed. The lower fraction was further centrifuged at 3000 rpm for 10 minutes to prepare platelet poor plasma (PPP). Platelets were counted in PRP and diluted in PPP to a final concentration of 200.000 platelets per microliter. 3 mg/ml ristocetin (DAKO) was added and aggregation was measured.
The GPIb-IX-V dependent platelet aggregation through vWF is measured using ristocetin as a modulator. The % aggregation is measured at each time point and at each dose.

[2] = Bleeding analysis in Folts baboons (blood loss in gauzes); conditions: for therapeutic window in the Folts model: antithrombotic effect versus blood loss; for Average of total blood loss: sum of blood loss from the first five doses of test compound, relative to the second control gauze
Method: To analyze bleeding, an incision was made with a scalpel in the groin. This was done at 15 minutes after recording baseline flow, when the injury was made in the artery. Gauzes were inserted in the wound and replaced every 30 minutes just before each new dose of test compound. The amount of blood loss after each dose of test compound was determined by weighing the gauzes.

[3] = tested on: cyclic flow reductions (CFRs) in injured, stenosed femoral artery; assay: Folts model in baboons: Aspegic-Heparin-Plavix combination with ALX-0081 on top; assay type: in vivo, baboon (Papio ursinus); conditions: combined with 5 mg/kg Aspirin and 60 IU/kg Heparin
Method: Extra Heparin was administered at different time points to sustain a certain level (aPTT should be at least doubled versus control). […] The anti-thrombotic effect was quantified by comparing the length of CFRs before and after drug administration. When full inhibition of CFRs was observed, a new injury was applied. Epinephrin was injected and continued till the end of the experiment. […] (1), 3, 10 or 30 μg/kg. […] The specifications of the baboons that were used in this study are represented in table 49.

[4] = tested on: cyclic flow reductions (CFRs) in injured, stenosed femoral artery; assay: Folts thrombosis model in baboons: length/inhibition of cyclic flow reductions (CFRs); assay type: in vivo, baboon (Papio ursinus); conditions: for effective dose: Folts model; for CFRs upon a new injury: new injury applied at full inhibition of CFRs; for Inhibition of CFRs / Inhibition of CFRs after administration of Epinephrin / Inhibition of CFRs after new injury: number of experiments with inhibition / total number of independent repeats
Method: The study protocol that was applied is the original Folts model and some modifications described below (Folts J D, et al, Circulation. 1976; 54:365-370). Healthy male or female baboons (Papio ursinus) were used. The animals were 8-17 kg of weight and were disease-free for at least 2 weeks prior to use. The baboons were fed with dry standard food only. The baboons were used at different time points. […] Animals were anaesthetized and body temperature is maintained at 37° C. with a heating table. A segment of a femoral artery was dissected free from surrounding tissue. A shunt was placed between the femoral vein and femoral artery to obtain high shear rates. The mean and phasic blood flow was recorded continuously throughout the experiment. Baseline flow was recorded for 20 minutes. […] A clamp was placed over the injured site to create an external stenosis. A gradual decline in blood flow due to platelet adhesion and aggregation was observed. When flow was reduced to zero, blood flow was restored by opening the clamp to dislodge the platelet-rich thrombus. This repetitive pattern of decreasing blood flow following mechanical restoration is referred to as cyclic flow reductions (CFRs). Additional endothelial injury was repeated if needed to finally obtain stable CFRs in these baboons. The number of times the thrombus needed to be dislodged determines the number of CFRs. FIG. 24 illustrates blood flow pattern during the Folts model in baboons. […] This procedure was repeated for several times with escalating doses of the test substance. The anti-thrombotic effect was quantified by comparing the length of CFRs before and after drug administration. When full inhibition of CFRs was observed, a new injury was applied in order to confirm that the inhibition was an effect of the treatment but not of a natural healing phenomenon.

[5] = tested on: cyclic flow reductions (CFRs) in injured, stenosed femoral artery; assay: Use of vWF as an antidote for ALX-0081 in the baboon Folts model; assay type: in vivo, baboon (Papio ursinus)
Text: The experimental procedure followed the original Folts model with the modifications as described in the previous example 18.
Healthy male baboons (Papio ursinus) were used in this study. The animals were 9-12 kg of weight and were disease-free for at least 2 weeks prior to use. The baboons were fed with dry standard food only.

[6] = tested on: platelet adhesion to collagen type III; assay: Inhibition of platelet adhesion by nanobodies in a flow (perfusion) chamber; assay type: cell-based, human; conditions: Table 41
Method: The protein samples were analysed in a perfusion chamber. Thermanox coverslips (Nunc) were soaked overnight in 80% ethanol, rinsed thoroughly with distilled water and air-dried. Human placental collagen type III (Sigma) was solubilized in 0.05 mol/l acetic acid and sprayed on the coverslips at a final density of 30 μg/cm^2 with a retouching airbrush. After spraying the coverslips were blocked with 1% human albumin solution in PBS for at least 1 hour at RT. Perfusions were performed with a single-pass perfusion chamber under non-pulsatile flow conditions using a modified small perfusion chamber with a slit height of 0.1 mm and a slit width of 2 mm. Blood was obtained by venipuncture from healthy volunteers and anti-coagulated with Penta/PPACK. Triplicate coverslips were inserted into the chamber. […] After a perfusion run, the coverslip was taken from the chamber, rinsed in Hepes buffered saline (10 mM Hepes, 150 mM NaCL, ph 7.4), fixed in 0.5% glutaraldehyde in PBS, dehydrated in methanol and stained with May-Grünwald and Giemsa (Riedel de Haën). Platelet deposition was evaluated as platelet surface coverage using light microscopy and computer-assisted analysis.

[7] = Plavix final dose 2.5 mg/kg, individual baboons 9-12, 2.5 mg/kg

O=C(O)CN(CCN(CC(=O)O)CC(=O)O)CC(=O)O [EDTA]
effect on the cleavage of the A1-A2-A3 vWF fragment by ADAMTS-13 (ADAMTS-13): inhibition of cleavage of the fragment

COC(=O)[C@H](c1ccccc1Cl)N1CCc2sccc2C1 [Plavix]
% ristocetin-induced platelet aggregation [1]: 42% and 63% and 66% and 83% and 59% and 76% and 60% | Blood loss relative to the second control gauze, Average ([2]; Plavix final dose 1 mg/kg): 1.4 | Blood loss relative to the second control gauze ([2]; Plavix final dose 1 mg/kg, individual baboons 9-12, 1 mg/kg): 0.6 and 1.3 and 1.6 and 1.2 | Blood loss relative to the second control gauze, Average ([2]; Plavix final dose 2.5 mg/kg): 1.2 | Blood loss relative to the second control gauze [2, 7]: 1.5 and 1.4 and 1.1 and 1.0 | Blood loss relative to the second control gauze, Average ([2]; Plavix final dose 5 mg/kg): 4.5 | Blood loss relative to the second control gauze ([2]; Plavix final dose 5 mg/kg, individual baboons 9-12, 5 mg/kg): 5.1 and 4.7 and 1.4 and 6.6 | Blood loss relative to the second control gauze, Average ([2]; Plavix final dose 10 mg/kg): 7.6 | Blood loss relative to the second control gauze ([2]; Plavix final dose 10 mg/kg, individual baboons 9-12, 10 mg/kg): 6.5 and 4.5 and 5.8 and 13.6 | Blood loss relative to the second control gauze, Average ([2]; Plavix final dose 20 mg/kg): 4.9 | Blood loss relative to the second control gauze ([2]; Plavix final dose 20 mg/kg, individual baboons 9-12, 20 mg/kg): 3.7 and 4.1 and 9.1 and 2.6 | therapeutic window in the Folts model [2]: much more narrow | Blood loss relative to the second control gauze ([2]; at the highest dose): up to 9 fold | Average of total blood loss [2]: 19.4 | dose of Plavix required for full inhibition, fold lower than Plavix alone [3]: 2.5 fold | time after injection at which the inhibitory effect on CFR length started ([4]; 2.5 mg/kg final dose): 10 min | effective dose [4]: 5 mg/kg | effective dose ([4]; inhibition of CFRs): 5 mg/kg | Length of CFRs ([4]; Plavix final dose 1 mg/kg, individual baboons 9, 11, 12, 1 mg/kg): 189 s and 132 s and 179 s | Length of CFRs [4, 7]: 883 s and 400 s and 258 s and >1800 s | Length of CFRs ([4]; Plavix final dose 5 mg/kg, individual baboons 9-12): >1800 s | Length of CFRs ([4]; Plavix final dose 10 mg/kg, individual baboons 9-12): >1800 s | Length of CFRs ([4]; Plavix final dose 20 mg/kg, individual baboons 9-12): >1800 s | Length of CFRs ([4]; Plavix-treated, after Epinephrin, individual baboons 9-12): 241 s and 91 s and 83 s and 66 s | final dose at which full inhibition of CFRs was obtained ([4]; baboon 12): 2.5 mg/kg | CFRs upon a new injury [4]: CFRs remained inhibited | Inhibition of CFRs [4]: 4/4 | Inhibition of CFRs after administration of Epinephrin [4]: 0/4 | Inhibition of CFRs after new injury [4]: 4/4 | final dose at which full inhibition of CFRs was obtained ([4]; the other three baboons): 5 mg/kg

Reopro: drug currently used in the clinic, comparator in the Folts model
therapeutic window in the Folts model [2]: much more narrow | Average of total blood loss [2]: 44 | effective dose [4]: 0.25 mg/kg | effective dose ([4]; inhibition of CFRs, final dose, ALX-0081: + […] dose/kg/hour): 0.17 to 0.42 mg/kg | Length of CFRs ([4]; Reopro final dose 20 μg/kg, individual baboons 13, 14, 15): 98 s and 82 s and 254 s | Length of CFRs ([4]; Reopro final dose 70 μg/kg, individual baboons 13, 14, 15): 90 s (2×) and 248 s | Length of CFRs ([4]; Reopro final dose 170 μg/kg, individual baboons 13, 14, 15): 90 s and >1800 s (2×) | Length of CFRs ([4]; Reopro final dose 420 μg/kg, individual baboons 13, 14, 15): >1800 s | Length of CFRs ([4]; Reopro final dose 920 μg/kg, individual baboons 13, 14, 15): >1800 s | Length of CFRs ([4]; Reopro-treated, after Epinephrin, individual baboons 13, 14, 15): >1200 s | final dose needed for full inhibition of the CFRs ([4]; baboons 13, 14 and 15, bolus injection only): 0.17 to 0.42 mg/kg | CFRs upon a new injury [4]: complete inhibition of the CFRs was retained | Inhibition of CFRs [4]: 3/3 | Inhibition of CFRs after administration of Epinephrin [4]: 3/3 | Inhibition of CFRs after new injury [4]: 3/3

vWF: vWF evaluated as an antidote for ALX-0081
reversal of the activity of ALX-0081 on CFRs ([5]; CFRs returned after 250 IU plus extra 250 IU of vWF): can be reversed by administration of vWF | Length of CFRs ([5]; second 250 IU vWF after 30 μg/kg + 45 μg/kg/hour ALX-0081, baboons 1-3): 246 s and 256 s and 230 s

B1: 12B6H2-3a-12B6H2 (protein)
VHH: EVQLVESGGGLVQPGGSLRLSCAASGRTFSYNPMGWFRQAPGKGREVVAAISRTGGSTYYARSVEGRFTISRDNAKRMVYLQMNSLRAEDTAVYYCAAAGVRAEDGRVRTLPSEYNFWGQGTQVTVSSAAAEVQLVESGGGLVQPGGSLRLSCAASGRTFSYNPMGWFRQAPGKGREVVAAISRTGGSTYYARSVEGRFTISRDNAKRMVYLQMNSLRAEDTAVYYCAAAGVRAEDGRVRTLPSEYNFWGQGTQVTVSS
% Platelet adhesion ([6]; 0.3 μg/ml nanobody): 30 ± 16% | % Platelet adhesion ([6]; 0.6 μg/ml nanobody): 17 ± 6%
